From paper PMC7530392, “A label‐free impedance assay in endothelial cells differentiates the activation and desensitization properties of clinical S1P1 agonists” (FEBS Open Bio, 2020)
“Also recorded” adds a separate entry of the source. Where two headings read alike, the source gives them in different places.

Tests used:
recombinant human GRK2 = molecular target: T1, recombinant human GRK2 (Homo sapiens, UniProt P25098); test: 33P-ATP flash plate kinase assay; assay type: biochemical; settings: 3 µM ATP, biotin-[…] substrate
T1 construct: purchased Thermo Fisher PR4694A
T1 sequence (P25098 1-689): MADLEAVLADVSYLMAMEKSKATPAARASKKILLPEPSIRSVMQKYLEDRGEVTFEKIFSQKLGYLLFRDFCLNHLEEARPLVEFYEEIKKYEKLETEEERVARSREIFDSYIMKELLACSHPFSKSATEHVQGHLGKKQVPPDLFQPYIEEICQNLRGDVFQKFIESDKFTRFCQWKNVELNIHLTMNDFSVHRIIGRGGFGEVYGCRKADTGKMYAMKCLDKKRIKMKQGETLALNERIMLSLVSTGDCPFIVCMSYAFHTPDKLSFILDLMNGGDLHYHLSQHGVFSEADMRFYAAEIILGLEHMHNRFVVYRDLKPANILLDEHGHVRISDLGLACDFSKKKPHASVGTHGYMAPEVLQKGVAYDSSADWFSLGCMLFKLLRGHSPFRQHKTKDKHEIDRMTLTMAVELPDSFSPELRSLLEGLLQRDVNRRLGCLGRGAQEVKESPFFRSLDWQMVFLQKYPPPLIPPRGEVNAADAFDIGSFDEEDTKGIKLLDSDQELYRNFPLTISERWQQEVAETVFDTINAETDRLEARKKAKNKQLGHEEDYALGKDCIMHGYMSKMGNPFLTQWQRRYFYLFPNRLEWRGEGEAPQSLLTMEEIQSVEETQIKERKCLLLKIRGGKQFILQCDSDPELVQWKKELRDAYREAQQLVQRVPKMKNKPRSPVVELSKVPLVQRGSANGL

human S1P1 = test: β-arrestin recruitment assay in PathHunter cells overexpressing human S1P1; assay type: cell-based; settings: read-out: IC50 inhibition of β-arrestin recruitment
Procedure: The cellular potency of the GRK2 inhibitor was determined using a β‐arrestin recruitment assay in PathHunter® cells overexpressing human S1P1 (Eurofins DiscoverX Corporation, San Diego, CA, USA; catalogue number 93‐0207C2) as described. The mean IC50 from at least 3 separate experiments was reported.

S1P1 [1] = molecular target: T2, S1P1 (Homo sapiens, UniProt P21453); test: Label-free impedance assay in HUVEC, first stimulation (early and late BNCI response); assay type: cell-based; settings: for Late phase Max: determined manually for bell-shaped responses; for Early phase Max: BNCI curve maximum; for Early phase Max / Early phase Min / Early phase Hill slope: early response; for Early phase Min: BNCI curve minimum; for Emax: read-out: Maximum BNCI in late response as % of E max in early response; for EC50: first stimulation, geometric mean; for Impedance profile in the presence of the GRK2 inhibitor: 10 µM GRK2 inhibitor, over 60 min
T2 construct: host or cells: HUVEC (pooled donors)
Procedure: (§1) HUVECs from pooled donors (PromoCell GmbH, Heidelberg, Germany, C‐12203) were seeded at 10 000 cells per well, in complete medium (C2210, C39210) containing 2% fetal bovine serum (FBS), in 96‐well collagen‐I coated E‐plates. Cells were allowed to attach and proliferate for 6 h, followed by overnight serum starvation in medium containing 0.1% FBS. Electrical impedance was measured continuously with RTCA‐MP station (xCELLigence RTCA, ACEA‐Biosciences, San Diego, CA, USA), according to the manufacturer’s protocol, and expressed as baseline normalized cell index (BNCI) using RTCA2.0 software. Impedance measurements were analyzed for 60 min following addition of test compounds or DMSO control, and the early (peak response at 8–10 min) and late response (at 60 min) was used for further analysis. Cells were then washed in medium containing 0.1% FBS for 5.5 h. The effect of each test compound to desensitize the response to a second stimulation with the natural ligand S1P (80 nM) was measured in the same wells and expressed as the AUC0–60 min of the S1P‐induced BNCI response. […] The baseline for the BNCI calculation was the respective vehicle responses for the first (0.1% DMSO) and second stimulations (2.5 µg·mL^−1 BSA). When tested, 10 µM GRK2 inhibitor was pretreated with cells for 2 h prior to addition of test compounds and its effect on early and late responses measured as above. All experiments were repeated on at least 3 separate occasions.
Effective concentration corresponding to half of the difference between the maximum and minimum effect (EC50) of agonists was determined with SAS procedure NLIN in SAS system release 9.1 under UNIX via BIOSTAT@T‐SPEED‐LTS v2.0 internal software using the 4‐parameter logistical model.

S1P1 [2] = molecular target: T2, S1P1; test: Desensitization of S1P-induced BNCI response in HUVEC (second stimulation with 80 nM S1P); assay type: cell-based; settings: for Desensitization Max: S1P-induced BNCI response curve maximum; for Desensitization Max / Desensitization Min / Desensitization Hill slope: arithmetic mean; for Desensitization Min: S1P-induced BNCI response curve minimum; for IC50: absolute 50% reduction of control S1P (80 nM)-induced BNCI AUC0–60 min after 5.5 h wash, geometric mean, read-out: Desensitization IC50 [95% CI]
Procedure: as §1
The activation‐to‐desensitization ratio was expressed as IC50/EC50 for early phase. EC50, IC50, and activation‐to‐desensitization ratio were reported as geometric mean with 95% confidence intervals.

[3] = cited from earlier work
lymphocytes = settings: approved dose in MS; no reference given; cited from earlier work
[4] = BNCI at 60 min, arithmetic mean
[5] = late (60 min) versus early phase
[6] = BNCI peak response at 8–10 min, read-out: Early phase EC50 [95% CI]

T2 sequence (P21453 whole entry): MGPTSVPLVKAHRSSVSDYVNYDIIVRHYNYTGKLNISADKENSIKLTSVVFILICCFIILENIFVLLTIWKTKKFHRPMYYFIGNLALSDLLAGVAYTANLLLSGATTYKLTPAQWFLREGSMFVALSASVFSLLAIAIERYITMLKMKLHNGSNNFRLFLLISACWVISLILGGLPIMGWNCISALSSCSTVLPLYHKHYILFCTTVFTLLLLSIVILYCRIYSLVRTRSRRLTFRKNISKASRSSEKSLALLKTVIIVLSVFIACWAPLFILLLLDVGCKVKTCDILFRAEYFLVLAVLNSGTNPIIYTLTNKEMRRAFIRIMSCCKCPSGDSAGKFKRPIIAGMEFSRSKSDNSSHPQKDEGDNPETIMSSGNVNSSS

SMILES | Shape of concentration–effect relationship in the late response (S1P1 [1]; BNCI at 60 min) | Late phase Max (S1P1 [1]; [4]) | Early phase Max (S1P1 [1]; arithmetic mean) | Early phase Min (S1P1 [1]; arithmetic mean) | Early phase Hill slope (S1P1 [1]; arithmetic mean) | Emax (S1P1 [1]; [5]) [%] | Desensitization Max (S1P1 [2]) | Desensitization Min (S1P1 [2]) | Desensitization Hill slope (S1P1 [2]) | Volume of distribution in human [3] | Lymphocyte reduction (lymphocytes) | EC50 (S1P1 [1]; [6]) [nM] | IC50 (S1P1 [2]) [nM] | Impedance profile in the presence of the GRK2 inhibitor (S1P1 [1]) | also measured
O=C(NCc1ccc2onc(NCc3ccccc3C(F)(F)F)c2c1)c1ccc2[nH]ncc2c1 [GRK2 inhibitor, 1H‐Indazole‐5‐carboxylic acid [3‐(2‐trifluoromethyl‐benzylamino)‐1,2‐benzisoxazol‐5‐ylmethyl]‐amide] |  |  |  |  |  |  |  |  |  |  |  |  |  |  | IC50 (recombinant human GRK2): 44 nM; IC50 (human S1P1): 1100 nM
CC(C)Oc1ccc(-c2nc(-c3cccc4c3CC[C@@H]4NCCO)no2)cc1C#N [Ozanimod, ozanimod] | bell‐shaped | 0.234 | 0.461 | 0.188 | 1.1 | 51 | 91.5 | −13.9 | −1.5 | 5590 [5] L | 55% |  |  |  | 
CCC/N=C1\S/C(=C\c2ccc(OC[C@H](O)CO)c(Cl)c2)C(=O)N1c1ccccc1C [Ponesimod, ponesimod] | bell‐shaped | 0.468 | 0.582 | 0.175 | 1.2 | 81 | 79.3 | −38.2 | −0.9 | 160 [37] L |  | 2.41 | 18.4 |  | Activation-to-desensitization ratio [95% CI] (S1P1 [2]; desensitization IC50 / early phase EC50, geometric mean): 7.66 (3.41–17.2); S1P-induced BNCI response after preincubation at the highest concentrations tested (S1P1 [2]; second stimulation with S1P): fall below the baseline
Cc1cc(-c2nc3cnc(Oc4cccc(Cl)c4)nc3o2)cc(C)c1OCC(=O)O [SAR247799] |  | 0.425 | 0.527 | 0.101 | 1.0 |  | 89.3 | 1.1 | −1.9 | 7–23 [13] L |  | 26.1 | 2980 | sustained BNCI increase with no signal decline over 60 min | Late phase Hill slope (S1P1 [1]; [4]): 0.7; Late phase Min (S1P1 [1]; [4]): 0.045; EC50 (S1P1 [1]; BNCI at 60 min, read-out: Late phase EC50 [95% CI]): 42.8 nM; Maximum BNCI in late response as % of E max in early response (S1P1 [1]; [5]): 81%; Further increase of late response by presence of GRK inhibitor (S1P1 [1]; late response, 10 µM GRK inhibitor pretreated 2 h): 2 fold
CCc1cc(/C(C)=N/OCc2ccc(C3CCCCC3)c(C(F)(F)F)c2)ccc1CN1CC(C(=O)O)C1 [Siponimod, siponimod] | bell‐shaped | 0.150 | 0.440 | 0.012 | 0.7 | 34 | 96.8 | −16.3 | −1.0 |  | 70–80% | 0.977 | 0.167 | sustained BNCI increase with no signal decline over 60 min | Barrier effect in late response in the presence of the GRK inhibitor (S1P1 [1]; 10 µM GRK inhibitor, same concentrations that gave negative BNCI without inhibitor): improved barrier integrity; Late response BNCI at highest concentrations (barrier effect) (S1P1 [1]; 60 min, absence of GRK inhibitor): endothelial barrier disruption; also recorded: concentration‐dependent decrease to negative BNCI values
CCCCCCCCc1ccc(CCC(N)(CO)CO)cc1 [fingolimod] |  |  |  |  |  |  |  |  |  |  | 70–80% |  |  |  | 
